According to patent US10718761B2, “Phosphatase or kinase activity detection composition and detection method” (INDUSTRY-UNIVERSITY COOPERATION FOUNDATION HANYANG …, priority 2014, dated 2020):

Test system: TAMRA-PEPPKA(p)
Assay: Zn(II)-mediated QD-FRET between QD525 and TAMRA-labelled phosphopeptide
Assay type: binding
Details: QD 2 nM
Method: A synthetic peptide substrate labeled with 5(6)-carboxytetramethylrhodamine at the N-terminus (TAMRA-LRRASLG; TAMRA-PEPPKA) was compared with its phosphorylated form (TAMRA-LRRApSLG; TAMRA-PEPPKA(p)) (FIG. 12B). The FRET ratio was determined by the acceptor (FA) emission area (integrated from 550 to 650 nm) relative to the donor (FD) emission area (integrated from 450 to 550 nm). The concentrations of QD, TAMRA-PEPPKA(p) (or TAMRA-PEPPKA), and ZnCl2 were 2 nM, 80 nM and 100 μM, respectively. The QD-FRET spectra were obtained at an excitation wavelength of 380 nm.
The change in FRET between QD and TAMRA-PEPPKA(p) according to a function of Zn^2+ concentration was calculated. Furthermore, the relative FRET percentage was calculated by dividing the experimental FRET ratio by the maximal FRET ratio (0.74). The concentrations of QD and TAMRA-PEPPKA(p) were 2 nM and 80 nM, respectively. Excitation/emission wavelengths of QD-FRET (FIG. 12C (i)), QD (FIG. 12C (ii)), and TAMRA-PEPPKA(p) (FIG. 12C (iii)) were obtained at 380/580, 380/525, 530/580 nm, respectively.

[Cl-].[Cl-].[Zn+2] [Zn(II), ZnCl2]
FRET ratio (FA/FD) (TAMRA-PEPPKA(p) 80 nM, ZnCl2 100 μM, excitation 380 nm): 0.65
Kd (free Zn(II) ions, TAMRA-PEPPKA(p) 80 nM (1:40 molar ratio), read-out: binding affinity Kd for TAMRA-PEPPKA(p), based on the FRET efficiency): 8.8 µM
